Measurements from US11572590B2, “Methods for evaluating tumor cell spheroids using 3D microfluidic cell culture device” (Dana-Farber Cancer Institute, Inc., priority 2017, dated 2023).
Read-outs that look alike come from different tables or passages of the source.

Columns and labels:
Assay in all cases: SelectScreen Kinase Profiling, single point inhibition and IC50 for off-target kinases
Assay type in all cases: biochemical
[1] = biological target: T1, off-target kinases (Homo sapiens, UniProt Q96L34); conditions: MARK4, ATP Km app, ZLYTE
T1 sequence (Q96L34 1-752): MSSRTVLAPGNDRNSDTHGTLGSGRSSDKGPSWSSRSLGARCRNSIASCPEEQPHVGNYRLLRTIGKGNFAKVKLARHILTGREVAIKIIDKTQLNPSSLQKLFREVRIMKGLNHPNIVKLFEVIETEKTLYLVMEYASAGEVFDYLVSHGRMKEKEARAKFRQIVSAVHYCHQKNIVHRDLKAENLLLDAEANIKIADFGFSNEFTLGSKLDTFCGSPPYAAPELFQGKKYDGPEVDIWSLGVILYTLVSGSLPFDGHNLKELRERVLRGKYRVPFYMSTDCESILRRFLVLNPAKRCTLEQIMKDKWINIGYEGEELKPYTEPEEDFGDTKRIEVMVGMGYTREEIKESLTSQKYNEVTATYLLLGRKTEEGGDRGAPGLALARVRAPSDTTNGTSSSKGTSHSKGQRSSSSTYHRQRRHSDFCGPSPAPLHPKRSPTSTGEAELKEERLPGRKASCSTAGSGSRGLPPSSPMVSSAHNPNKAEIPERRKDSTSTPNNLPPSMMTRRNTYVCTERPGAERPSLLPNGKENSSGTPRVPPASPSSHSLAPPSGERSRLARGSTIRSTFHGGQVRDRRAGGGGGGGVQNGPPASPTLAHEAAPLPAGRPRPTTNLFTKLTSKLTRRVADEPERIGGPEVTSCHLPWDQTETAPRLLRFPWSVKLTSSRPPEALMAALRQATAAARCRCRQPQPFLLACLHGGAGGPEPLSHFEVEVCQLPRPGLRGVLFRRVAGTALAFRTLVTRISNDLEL

[2] = biological target: off-target kinases (Homo sapiens, UniProt P57059); conditions: SIK1, LanthaScreen Binding
[3] = biological target: off-target kinases (Homo sapiens, UniProt Q9UBF8); conditions: PI4KB (PI4K beta), Adapta, ATP Km app
[4] = biological target: off-target kinases (Homo sapiens, UniProt P22694); conditions: PRKACB (PRKAC beta), LanthaScreen Binding
[5] = biological target: off-target kinases (Homo sapiens, UniProt Q13627); conditions: DYRK1A, ZLYTE, ATP Km app
[6] = biological target: off-target kinases (Homo sapiens, UniProt P30291); conditions: WEE1, LanthaScreen Binding
[7] = biological target: off-target kinases (Homo sapiens, UniProt P49760); conditions: CLK2, ZLYTE, ATP Km app
[8] = biological target: off-target kinases (Homo sapiens, UniProt P00519, M351T); conditions: ABL1 M351T, LanthaScreen Binding
[9] = biological target: off-target kinases (Homo sapiens, UniProt O94921); conditions: CDK14 (PFTK1)/cyclin Y, LanthaScreen Binding
[10] = biological target: off-target kinases (Homo sapiens, UniProt P37023); conditions: ACVRL1 (ALK1), LanthaScreen Binding
Chain of off-target kinases (Homo sapiens, UniProt P37023) (P37023 22-503): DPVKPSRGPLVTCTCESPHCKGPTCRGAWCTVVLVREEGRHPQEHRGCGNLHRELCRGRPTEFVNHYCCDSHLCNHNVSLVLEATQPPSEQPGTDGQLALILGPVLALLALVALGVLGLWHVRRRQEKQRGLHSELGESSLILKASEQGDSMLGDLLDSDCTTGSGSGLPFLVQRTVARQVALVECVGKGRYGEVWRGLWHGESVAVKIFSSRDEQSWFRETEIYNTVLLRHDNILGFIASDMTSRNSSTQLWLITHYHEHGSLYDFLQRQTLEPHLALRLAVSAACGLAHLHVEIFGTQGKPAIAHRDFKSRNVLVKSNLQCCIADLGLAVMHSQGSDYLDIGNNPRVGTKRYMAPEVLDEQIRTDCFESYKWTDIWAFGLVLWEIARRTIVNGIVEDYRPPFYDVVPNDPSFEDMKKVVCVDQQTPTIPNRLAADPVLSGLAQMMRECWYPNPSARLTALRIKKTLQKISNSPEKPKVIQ

Chain of off-target kinases (Homo sapiens, UniProt Q9UBF8) (Q9UBF8 whole entry): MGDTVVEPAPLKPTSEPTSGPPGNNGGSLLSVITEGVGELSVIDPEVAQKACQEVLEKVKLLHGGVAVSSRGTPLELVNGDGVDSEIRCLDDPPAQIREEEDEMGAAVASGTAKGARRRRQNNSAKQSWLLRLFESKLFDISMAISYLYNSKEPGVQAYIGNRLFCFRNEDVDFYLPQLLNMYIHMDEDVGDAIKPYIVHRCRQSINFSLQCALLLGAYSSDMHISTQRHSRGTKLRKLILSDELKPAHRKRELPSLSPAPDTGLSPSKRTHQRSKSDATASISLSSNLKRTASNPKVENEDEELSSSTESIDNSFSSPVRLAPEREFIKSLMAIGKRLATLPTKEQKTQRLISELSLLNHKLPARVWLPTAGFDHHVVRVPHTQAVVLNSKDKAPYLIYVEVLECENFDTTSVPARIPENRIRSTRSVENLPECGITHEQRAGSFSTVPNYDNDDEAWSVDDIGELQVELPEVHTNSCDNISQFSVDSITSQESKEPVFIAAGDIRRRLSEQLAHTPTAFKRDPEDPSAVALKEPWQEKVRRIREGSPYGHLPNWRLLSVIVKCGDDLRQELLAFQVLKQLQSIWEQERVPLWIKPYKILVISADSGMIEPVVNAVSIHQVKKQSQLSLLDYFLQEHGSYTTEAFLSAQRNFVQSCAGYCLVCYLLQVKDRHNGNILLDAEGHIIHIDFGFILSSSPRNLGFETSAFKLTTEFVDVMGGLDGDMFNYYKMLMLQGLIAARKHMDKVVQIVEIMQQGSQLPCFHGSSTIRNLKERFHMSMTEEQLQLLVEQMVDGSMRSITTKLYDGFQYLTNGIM
Chain of off-target kinases (Homo sapiens, UniProt P30291) (P30291 whole entry): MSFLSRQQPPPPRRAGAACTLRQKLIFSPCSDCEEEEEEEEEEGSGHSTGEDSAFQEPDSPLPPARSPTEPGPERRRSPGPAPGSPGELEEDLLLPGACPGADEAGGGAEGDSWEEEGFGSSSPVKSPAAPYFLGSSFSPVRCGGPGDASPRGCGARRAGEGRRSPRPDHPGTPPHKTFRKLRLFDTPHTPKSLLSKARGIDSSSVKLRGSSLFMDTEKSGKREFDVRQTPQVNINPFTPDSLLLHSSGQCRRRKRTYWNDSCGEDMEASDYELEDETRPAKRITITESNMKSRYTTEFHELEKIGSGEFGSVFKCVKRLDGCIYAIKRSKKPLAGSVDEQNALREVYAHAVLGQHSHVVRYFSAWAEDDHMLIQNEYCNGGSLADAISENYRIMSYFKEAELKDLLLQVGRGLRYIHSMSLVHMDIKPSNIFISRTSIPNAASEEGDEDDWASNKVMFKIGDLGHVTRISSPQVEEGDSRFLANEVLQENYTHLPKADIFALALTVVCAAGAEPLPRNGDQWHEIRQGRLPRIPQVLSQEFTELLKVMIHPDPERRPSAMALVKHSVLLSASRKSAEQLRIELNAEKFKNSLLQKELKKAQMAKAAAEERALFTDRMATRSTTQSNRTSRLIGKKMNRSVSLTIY
Chain of off-target kinases (Homo sapiens, UniProt P49760) (P49760 whole entry): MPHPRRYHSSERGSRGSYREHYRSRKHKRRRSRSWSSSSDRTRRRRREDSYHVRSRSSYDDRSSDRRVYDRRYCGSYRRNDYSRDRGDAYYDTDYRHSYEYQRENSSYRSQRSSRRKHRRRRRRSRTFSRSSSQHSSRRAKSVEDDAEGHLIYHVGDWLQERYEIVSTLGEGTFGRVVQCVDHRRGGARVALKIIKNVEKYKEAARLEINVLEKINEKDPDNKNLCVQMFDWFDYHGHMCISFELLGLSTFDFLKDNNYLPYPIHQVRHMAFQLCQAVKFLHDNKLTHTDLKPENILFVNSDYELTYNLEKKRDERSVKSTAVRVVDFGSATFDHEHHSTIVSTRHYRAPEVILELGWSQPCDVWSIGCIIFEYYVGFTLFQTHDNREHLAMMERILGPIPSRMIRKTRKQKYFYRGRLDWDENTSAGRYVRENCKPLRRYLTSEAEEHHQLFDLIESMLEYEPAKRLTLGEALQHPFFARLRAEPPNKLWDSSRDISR
Chain of off-target kinases (Homo sapiens, UniProt O94921) (O94921 whole entry): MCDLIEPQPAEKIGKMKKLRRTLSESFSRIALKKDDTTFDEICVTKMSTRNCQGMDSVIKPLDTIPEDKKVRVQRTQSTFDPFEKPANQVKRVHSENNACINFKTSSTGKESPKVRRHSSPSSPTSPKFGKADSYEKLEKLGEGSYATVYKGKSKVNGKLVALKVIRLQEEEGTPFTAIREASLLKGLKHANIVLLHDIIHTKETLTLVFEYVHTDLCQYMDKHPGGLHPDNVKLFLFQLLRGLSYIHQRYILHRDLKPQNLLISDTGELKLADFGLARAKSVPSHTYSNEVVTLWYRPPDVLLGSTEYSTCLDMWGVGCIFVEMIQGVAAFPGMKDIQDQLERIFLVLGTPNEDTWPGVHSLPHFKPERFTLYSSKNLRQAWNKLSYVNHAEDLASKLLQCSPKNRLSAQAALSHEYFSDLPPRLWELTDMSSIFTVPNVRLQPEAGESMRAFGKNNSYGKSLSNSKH
Chain of off-target kinases (Homo sapiens, UniProt P57059) (P57059 whole entry): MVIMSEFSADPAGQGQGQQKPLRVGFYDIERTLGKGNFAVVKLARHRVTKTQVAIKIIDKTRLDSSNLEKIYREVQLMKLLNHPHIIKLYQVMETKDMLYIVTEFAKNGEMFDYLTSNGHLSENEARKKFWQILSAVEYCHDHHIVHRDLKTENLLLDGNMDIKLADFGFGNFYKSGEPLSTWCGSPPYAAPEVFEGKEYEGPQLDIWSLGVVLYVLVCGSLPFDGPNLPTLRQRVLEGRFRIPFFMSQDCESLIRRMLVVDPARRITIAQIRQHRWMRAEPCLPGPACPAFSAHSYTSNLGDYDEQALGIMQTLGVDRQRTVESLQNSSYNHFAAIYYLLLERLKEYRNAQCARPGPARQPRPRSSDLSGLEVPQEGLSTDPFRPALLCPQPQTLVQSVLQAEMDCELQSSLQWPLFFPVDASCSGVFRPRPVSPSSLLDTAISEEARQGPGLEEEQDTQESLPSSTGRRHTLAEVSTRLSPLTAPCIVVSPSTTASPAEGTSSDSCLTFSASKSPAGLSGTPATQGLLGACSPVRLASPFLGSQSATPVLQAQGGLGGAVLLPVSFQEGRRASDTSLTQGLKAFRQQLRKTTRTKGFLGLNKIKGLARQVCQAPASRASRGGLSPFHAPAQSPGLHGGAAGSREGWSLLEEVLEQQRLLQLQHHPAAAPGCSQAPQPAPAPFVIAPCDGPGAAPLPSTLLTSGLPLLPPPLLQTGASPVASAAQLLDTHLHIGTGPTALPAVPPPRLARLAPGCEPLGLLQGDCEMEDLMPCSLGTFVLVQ

Structure (SMILES): N#Cc1cc(-c2ncnc(Nc3ccc(N4CCN(C5COC5)CC4)cc3)n2)ccc1OC1CCOCC1 [Compound 1, 5-(4-((4-(4-(oxetan-3-yl)piperazin-1-yl)phenyl)amino)-1,3,5-triazin-2-yl)-2-((tetrahydro-2H-pyran-4-yl)oxy)benzonitrile]
- inhibition ([1]; read-out: % Inhibition 1): 96%
- inhibition ([1]; read-out: % Inhibition 2): 93%
- inhibition ([1]; read-out: % Inhibition Avg): 95%
- inhibition ([2]; read-out: % Inhibition 1): 57%
- inhibition ([2]; read-out: % Inhibition 2): 54%
- inhibition ([2]; read-out: % Inhibition Avg): 56%
- inhibition ([3]; read-out: % Inhibition 1): 7%
- inhibition ([3]; read-out: % Inhibition 2): 3%
- inhibition ([3]; read-out: % Inhibition Avg): 5%
- inhibition ([4]; read-out: % Inhibition 1): 16%
- inhibition ([4]; read-out: % Inhibition 2): 18%
- inhibition ([4]; read-out: % Inhibition Avg): 17%
- inhibition ([5]; read-out: % Inhibition 1): 30%
- inhibition ([5]; read-out: % Inhibition 2): 27%
- inhibition ([5]; read-out: % Inhibition Avg): 28%
- inhibition ([6]; read-out: % Inhibition 1): 28%
- inhibition ([6]; read-out: % Inhibition 2): 36%
- inhibition ([6]; read-out: % Inhibition Avg): 32%
- inhibition ([7]; read-out: % Inhibition 1): 5%
- inhibition ([7]; read-out: % Inhibition 2): 9%
- inhibition ([7]; read-out: % Inhibition Avg): 7%
- inhibition ([8]; read-out: % Inhibition 1): 65%
- inhibition ([8]; read-out: % Inhibition 2): 69%
- inhibition ([8]; read-out: % Inhibition Avg): 67%
- inhibition ([9]; read-out: % Inhibition 1): 56%
- inhibition ([9]; read-out: % Inhibition 2): 51%
- inhibition ([9]; read-out: % Inhibition Avg): 54%
- inhibition ([10]; read-out: % Inhibition 1): 33%
- inhibition ([10]; read-out: % Inhibition 2): 38%
- inhibition ([10]; read-out: % Inhibition Avg): 35%
